Experiments:
LNCaP cells = assay: Cell cycle distribution by propidium iodide flow cytometry; format: cell-based, human; conditions: 48 h
Description: (§1) The cell cycle of treated cells was examined by flow cytometry after cellular staining with propidium iodide. 5×10^5 cells were seeded into 6-well multidishes with 10% FBS culture medium for 48 h. […] Cells were trypsinized thereafter, washed twice with cold PBS, and centrifuged. The pellet was suspended in cold PBS and 1 mL of 70% ethanol at 4° C. overnight, washed twice with cold PBS, and digested with RNase (100 μg/mL final concentration) and stained with propidium iodide (10 μg/mL final concentration) for 30 min and analyzed by flow cytometry (EPICS XL-MCL, Beckman Coulter, Inc., Fullerton, Calif.).

22Rv1 cells = assay: as above; format: cell-based, human; conditions: 48 h
Description: as §1

PC-3 cells = assay: as above; format: cell-based, human; conditions: 48 h
Description: as §1

androgen receptor = biological target: T1, androgen receptor (Homo sapiens, UniProt P10275); assay: PSA promoter luciferase reporter assay in 103E cells (AR transcriptional activity); conditions: for inhibition of AR activity: 50 μM, 20 h; for IC50: read-out: IC50 of AR activity, 20 h, luciferase
T1 sequence (P10275 with tags, fused parts or gaps DUP590-628/H875Y): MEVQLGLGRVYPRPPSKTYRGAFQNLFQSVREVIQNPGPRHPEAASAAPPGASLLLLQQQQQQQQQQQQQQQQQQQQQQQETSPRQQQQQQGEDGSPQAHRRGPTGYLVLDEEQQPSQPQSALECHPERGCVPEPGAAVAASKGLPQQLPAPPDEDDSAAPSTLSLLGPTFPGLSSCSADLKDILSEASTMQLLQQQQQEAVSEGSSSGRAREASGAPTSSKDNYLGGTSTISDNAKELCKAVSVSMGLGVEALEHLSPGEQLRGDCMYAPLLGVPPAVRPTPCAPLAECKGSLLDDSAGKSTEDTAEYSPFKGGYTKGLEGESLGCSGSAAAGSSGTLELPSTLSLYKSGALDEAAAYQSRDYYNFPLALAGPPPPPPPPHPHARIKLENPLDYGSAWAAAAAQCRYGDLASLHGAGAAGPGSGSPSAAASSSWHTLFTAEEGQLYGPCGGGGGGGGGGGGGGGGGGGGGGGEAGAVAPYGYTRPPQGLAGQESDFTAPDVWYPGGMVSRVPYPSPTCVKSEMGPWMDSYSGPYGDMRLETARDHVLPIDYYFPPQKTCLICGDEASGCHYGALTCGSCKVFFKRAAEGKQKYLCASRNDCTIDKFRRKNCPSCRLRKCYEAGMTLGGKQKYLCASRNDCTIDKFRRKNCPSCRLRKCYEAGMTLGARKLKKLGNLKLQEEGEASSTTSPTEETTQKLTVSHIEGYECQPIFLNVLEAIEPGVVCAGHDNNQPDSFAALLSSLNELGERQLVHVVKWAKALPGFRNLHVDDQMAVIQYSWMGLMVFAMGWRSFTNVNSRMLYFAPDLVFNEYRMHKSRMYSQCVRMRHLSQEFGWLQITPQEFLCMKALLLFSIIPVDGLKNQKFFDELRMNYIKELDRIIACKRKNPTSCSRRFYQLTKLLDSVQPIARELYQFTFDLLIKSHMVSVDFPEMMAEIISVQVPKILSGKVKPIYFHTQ
Description: PC-3 and NIH-3T3 were cultured in DMEM (Hyclone) supplemented with 10% FBS. Cultures were maintained in a humidified incubator at 37° C. in 5% CO2/air.
Cells were treated with various compounds for a period of 20 h and luciferase activity was measured using a luciferase reporter gene assay system (Promega).

## CC(O)(CS(=O)(=O)c1ccc(F)cc1)C(=O)Nc1ccc(C#N)c(C(F)(F)F)c1 (centres unmarked) [CASODEX, bicalutamide, reference compound]
LNCaP cells; 1 μM
  G0-G1 phase cell population: 62.1 ± 3.5 %
  G2-M phase cell population: 21.8 ± 2.0 %
  S phase cell population: 10.1 ± 1.7 %
  Sub-G1 phase cell population: 1.0 ± 0.5 %
LNCaP cells; 10 μM
  G0-G1 phase cell population: 61.3 ± 3.4 %
  G2-M phase cell population: 22.3 ± 1.7 %
  S phase cell population: 10.4 ± 1.5 %
  Sub-G1 phase cell population: 1.3 ± 0.8 %
22Rv1 cells; 22Rv1, 1 μM
  G0-G1 phase cell population: 53.5 ± 2.6 %
  G2-M phase cell population: 25.0 ± 1.6 %
  S phase cell population: 13.5 ± 2.3 %
  Sub-G1 phase cell population: 1.5 ± 1.1 %
22Rv1 cells; 22Rv1, 10 μM
  G0-G1 phase cell population: 53.0 ± 3.2 %
  G2-M phase cell population: 25.4 ± 1.0 %
  S phase cell population: 12.2 ± 1.8 %
  Sub-G1 phase cell population: 2.3 ± 1.8 %
PC-3 cells; PC-3, 1 μM
  G0-G1 phase cell population: 51.1 ± 3.6 %
  G2-M phase cell population: 24.4 ± 2.5 %
  S phase cell population: 18.5 ± 2.1 %
  Sub-G1 phase cell population: 2.3 ± 1.5 %
PC-3 cells; PC-3, 10 μM
  G0-G1 phase cell population: 51.0 ± 2.1 %
  G2-M phase cell population: 25.2 ± 2.1 %
  S phase cell population: 19.0 ± 1.3 %
  Sub-G1 phase cell population: 1.8 ± 1.4 %

## COc1c(C(C)C)cc2c(c1O)[C@@]1(C)CCCC(C)(C)[C@@H]1CC2=O [Compound 1]
Androgen receptor
  inhibition of AR activity: approximately 70%
  IC50: 8.62 µM
Androgen receptor; maximal inhibition at 50 μM
  Inhibitionmax (%) of AR activity: 77 ± 2% (50 μM)

## CC(C)c1cc2c(cc1O)[C@@]1(C)CCCC(C)(C)[C@@H]1CC2=O [Compound 3]
Androgen receptor; maximal inhibition at 25 μM
  Inhibitionmax (%) of AR activity: 100 ± 1% (25 μM)
Androgen receptor
  IC50: 2.64 µM

## CC(C)c1cc2c(cc1O)[C@@]1(C)CCCC(C)(C)[C@@H]1CC2 [Compound 4]
Androgen receptor; maximal inhibition at 25 μM
  Inhibitionmax (%) of AR activity: 100 ± 1% (25 μM)
Androgen receptor
  IC50: 12 µM

## CC(C)c1cc2c(cc1O)[C@@]1(C)CCCC(C)(C)[C@H]1OC2=O [Compound 5]
Androgen receptor
  inhibition of AR activity: less than 20%
Androgen receptor; maximal inhibition at 50 μM
  Inhibitionmax (%) of AR activity: 19 ± 6% (50 μM)

## CC(C)C1=C[C@]2(O)CC[C@H]3C(C)(C)CCC[C@]3(C)C2=CC1=O [Compound 6]
Androgen receptor
  inhibition of AR activity: approximately 70%
  IC50: 17.6 µM
Androgen receptor; maximal inhibition at 50 μM
  Inhibitionmax (%) of AR activity: 68 ± 6% (50 μM)

## CC(C)c1cc2c(cc1O)[C@@]1(C)CCCC(C)(C)[C@@H]1C(=O)C2=O [Compound 7]
Androgen receptor; maximal inhibition at 25 μM
  Inhibitionmax (%) of AR activity: 100 ± 1% (25 μM)
Androgen receptor
  IC50: 12.9 µM

## C=C1CC[C@@H]2[C@](C)(CCC[C@]2(C)C(=O)O)[C@H]1CC/C(C)=C/CO [Compound 8, isocupressic acid]
Androgen receptor
  inhibition of AR activity: 87%
  IC50: 22.7 µM
Androgen receptor; maximal inhibition at 50 μM
  Inhibitionmax (%) of AR activity: 87 ± 3% (50 μM)

Reference: patent publication US8519007B2, “Use certain diterpene compounds in the treatment of androgen receptor-associated diseases” (Academia Sinica, priority 2008, dated 2013)
